Four molecules from patent publication US11248234B2, “Herbicide-resistant hydroxyphenylpyruvate dioxygenases” (BASF SE, priority 2015, dated 2022) can be followed below.

The target in experiment [1] is Scenedesmus HPPD (Seq ID: 2) (Tetradesmus obliquus, UniProt A0A383WMN4, N195D). As to the kind of experiment: In vitro HPPD activity assay. In kind it is biochemical. The procedure: (§1) HPPD produces homogentisic acid and CO2 from 4-hydroxyphenylpyruvate (4-HPP) and O2. The activity assay for HPPD is based on the analysis of homogentisic acid by reversed phase HPLC.
Chain of Scenedesmus HPPD (Seq ID: 2) (A0A383WMN4 entry or part of it N195D): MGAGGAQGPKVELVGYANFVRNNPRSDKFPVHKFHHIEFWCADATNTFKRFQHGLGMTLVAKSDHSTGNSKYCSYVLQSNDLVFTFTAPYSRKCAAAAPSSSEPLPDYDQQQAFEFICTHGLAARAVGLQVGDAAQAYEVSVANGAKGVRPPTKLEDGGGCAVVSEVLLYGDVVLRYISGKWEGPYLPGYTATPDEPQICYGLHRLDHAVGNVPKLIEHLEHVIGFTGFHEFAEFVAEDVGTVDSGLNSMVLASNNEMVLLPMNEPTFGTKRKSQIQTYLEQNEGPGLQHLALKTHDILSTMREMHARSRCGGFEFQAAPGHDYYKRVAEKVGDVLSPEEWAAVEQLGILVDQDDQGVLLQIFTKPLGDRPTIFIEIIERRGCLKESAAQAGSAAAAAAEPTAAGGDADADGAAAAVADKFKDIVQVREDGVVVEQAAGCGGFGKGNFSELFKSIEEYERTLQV
(§2) The assay mixture can contain 150 mM potassium phosphate buffer pH 7.0, 50 mM L-ascorbic acid, 100 μM Catalase (Sigma-Aldrich), 1 μM FeSO4 and 0.2 units of purified mutated HPPD enzyme in a total volume of 505 μl. 1 unit is defined as the amount of enzyme that is required to produce 1 nmol of HGA per minute at 20° C.
(§3) After a preincubation of 30 min the reaction is started by adding 4-HPP to a final concentration of 0.05 mM. The reaction is allowed to proceed for 45 min at room temperature. The reaction is stopped by the addition of 50 μl of 4.5 M phosphoric acid. The sample is filtered using a […] pore size PVDF filtration device.
(§4) 5 μl of the cleared sample is analyzed on an UPLC HSS T3 column (particle size 1.8 μm, dimensions 2.1×50 mm; Waters) by isocratic elution using 90% 20 mM NaH2PO4 pH 2.2, 10% methanol (v/v).
(§5) HGA is detected electrochemically at 750 mV (mode: DC; polarity: positive) and quantified by integrating peak areas (Empower software; Waters).
(§6) Inhibitors are dissolved in DMSO (dimethylsulfoxide) to a concentration of 0.5 mM. From this stock solution serial five-fold dilutions are prepared in DMSO, which are used in the assay. The respective inhibitor solution accounts for 1% of the assay volume. Thus, final inhibitor concentrations range from 5 μM to 320 pM, respectively. Activities are normalized by setting the uninhibited enzyme activity to 100%. IC50 values are calculated using non-linear regression.
(§7) Using methods which are described in the above examples or well known in the art, purified, recombinant mutated HPPD enzymes are characterized with respect to their kinetic properties and sensitivity towards HPPD inhibiting herbicides. Apparent michaelis constants (Km) and maximal reaction velocities (Vmax) are calculated by non-linear regression with the software GraphPad Prism 5 (GraphPad Software, La Jolla, USA) using a substrate inhibition model. Apparent kcat values are calculated from Vmax assuming 100% purity of the enzyme preparation. Weighted means (by standard error) of Km and IC50 values are calculated from at least three independent experiments. The Cheng-Prusoff equation for competitive inhibition (Cheng, Y. C.; Prusoff, W. H. Biochem Pharmacol 1973, 22, 3099-3108) is used to calculate dissociation constants (Ki).
(§8) Field performance of the HPPD enzyme, which is used as a herbicide tolerance trait may depend not only on its lack of sensitivity towards HPPD inhibiting herbicides but also on its activity. To assess the potential performance of a herbicide tolerance trait a tolerance index (TI) is calculated using the following formula: […]
(§9) Easy comparison and ranking of each trait is enabled by normalizing tolerance indexes on Arabidopsis wild-type HPPD.

The target of experiment [2] is Scenedesmus Short HPPD (Seq ID: 4) (Tetradesmus obliquus, UniProt A0A383WMN4, DEL398-433/N195D). As to the kind of experiment: In vitro HPPD activity assay. The format is biochemical. How it is done:
as §1, §2, §3, §4, §5, §6, §7, §8, §9

Experiment [3] addresses T1, Arabidopsis HPPD (Seq ID: 42) (Arabidopsis thaliana, UniProt P93836).
T1 construct: His6; made in house; host or cells: E. coli BL21 (DE3)
T1 sequence (P93836 1-445): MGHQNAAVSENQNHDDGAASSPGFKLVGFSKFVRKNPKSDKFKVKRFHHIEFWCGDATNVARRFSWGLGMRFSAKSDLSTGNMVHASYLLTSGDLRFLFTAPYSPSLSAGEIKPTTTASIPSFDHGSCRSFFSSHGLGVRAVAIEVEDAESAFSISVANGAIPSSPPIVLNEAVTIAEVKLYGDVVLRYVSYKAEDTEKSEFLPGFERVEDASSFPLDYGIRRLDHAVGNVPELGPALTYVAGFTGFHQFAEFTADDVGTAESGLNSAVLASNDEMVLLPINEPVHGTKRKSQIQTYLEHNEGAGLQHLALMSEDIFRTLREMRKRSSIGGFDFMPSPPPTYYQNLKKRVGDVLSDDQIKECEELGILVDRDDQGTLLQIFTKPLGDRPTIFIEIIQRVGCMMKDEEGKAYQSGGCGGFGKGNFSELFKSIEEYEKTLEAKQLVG
The experiment can be described thus: In vitro HPPD activity assay (homogentisic acid by HPLC). The format is biochemical. The procedure: as §1, §2, §3, §4, §5
Inhibitors are dissolved in DMSO (dimethylsulfoxide) to a concentration of 0.5 mM. From this stock solution serial five-fold dilutions are prepared in DMSO, which are used in the assay. The respective inhibitor solution accounts for 1% of the assay volume. […] Activities are normalized by setting the uninhibited enzyme activity to 100%. IC50 values are calculated using non-linear regression.
Using methods which are described in the above examples or well known in the art, purified, recombinant mutated HPPD enzymes are characterized with respect to their kinetic properties and sensitivity towards HPPD inhibiting herbicides. Apparent michaelis constants (Km) and maximal reaction velocities (Vmax) are calculated by non-linear regression with the software GraphPad Prism 5 (GraphPad Software, La Jolla, USA) using a substrate inhibition model. […] Weighted means (by standard error) of Km and IC50 values are calculated from at least three independent experiments.
as §8, §9

Experiment [4] concerns WT (non-transgenic control) Arabidopsis plants. As to the kind of experiment: Greenhouse spray test, injury evaluation. The conditions noted are these: 14 DAT. In kind it is in vivo, Arabidopsis thaliana. The procedure:
(§10) Non-transgenic control plants were treated in parallel and pictures taken 14 days after treatment.
(§11) For post emergence treatment, the test plants are first grown to a height of 3 to 15 cm, depending on the plant habit, and only then treated with the herbicides. For this purpose, the test plants are either sown directly and grown in the same containers, or they are first grown separately and transplanted into the test containers a few days prior to treatment.
(§12) Additionally, T1 and T2 transgenic Arabidopsis plants can be tested for improved tolerance to HPPD-inhibiting herbicides in greenhouse studies. Herbicide injury scoring is done 2-3 weeks after treatment and is rated on a scale of 0 to 100%, 0% being no injury and 100% being complete death.
(§13) Transgenic T2 Arabidopsis plants were sprayed with a range of doses from 1.56-25 g/ha of different HPPD-inhibiting herbicides and injury evaluations were taken two weeks after treatment (FIG. 4). As depicted in Table 8, control plants were severely injured by all doses of herbicides applied, with at least 58% of leaf material being damaged at the lowest application rate and 100% leaf damage at the second application rate.

Experiment [5] relates to transgenic Arabidopsis plants (T2) SoHPPD F363I (short). As to the kind of experiment: Greenhouse spray test, injury evaluation. In kind it is in vivo, Arabidopsis thaliana. Particulars: for Injury: 14 DAT; for average damage: highest application rate, average of events. The procedure: as §10, §11, §12, §13
Experiment [6] has as its system transgenic Arabidopsis plants (T2) SoHPPD I419V (short). As to the kind of experiment: Greenhouse spray test, injury evaluation. In kind it is in vivo, Arabidopsis thaliana. Particulars: 14 DAT. The procedure: as §10, §11, §12, §13
Experiment [7] concerns transgenic Arabidopsis plants (T2) SoHPPD Q317H (short). The experiment can be described thus: Greenhouse spray test, injury evaluation. In kind it is in vivo, Arabidopsis thaliana. The conditions noted are these: 14 DAT. How it is done: as §10, §11, §12, §13
[8] abbreviates: apparent michaelis constant, substrate inhibition model, read-out: Km (4-HPP).
The mark [9] stands for this setting: apparent, from Vmax assuming 100% purity.

A word on the Ki: it is the equilibrium dissociation constant of an inhibitor or competing ligand from its target. Lower therefore signals higher affinity. The term Km denotes the substrate concentration at which the rate is half of its maximum. One may read the kcat as the maximal rate divided by the concentration of active sites.

Chain of Scenedesmus Short HPPD (Seq ID: 4) (A0A383WMN4 entry or part of it N195D/DEL398-433): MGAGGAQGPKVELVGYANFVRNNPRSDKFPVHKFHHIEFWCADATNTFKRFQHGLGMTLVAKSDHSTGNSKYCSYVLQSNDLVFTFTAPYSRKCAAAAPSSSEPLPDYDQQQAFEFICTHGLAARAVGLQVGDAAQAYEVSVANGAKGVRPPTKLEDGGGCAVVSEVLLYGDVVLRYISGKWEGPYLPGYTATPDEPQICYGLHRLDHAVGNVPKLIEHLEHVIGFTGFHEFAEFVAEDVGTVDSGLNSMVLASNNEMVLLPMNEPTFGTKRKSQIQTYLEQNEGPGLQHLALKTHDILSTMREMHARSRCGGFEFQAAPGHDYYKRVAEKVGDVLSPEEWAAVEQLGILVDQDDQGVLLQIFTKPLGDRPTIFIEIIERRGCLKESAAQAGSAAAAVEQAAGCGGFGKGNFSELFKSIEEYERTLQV

As for `CN(c1c(Cl)ccc(C2=C(O)c3ncccc3C(C)(C)S2(=O)=O)c1Cl)S(C)(=O)=O` [Inhibitor 3, N-[2,6-dichloro-3-(8-hydroxy-5,5-dimethyl-6,6-dioxo-thiopyrano[4,3-b]pyridin-7-yl)phenyl]-N-methyl-methanesulfonamide], the Ki came out at 110 nM in experiment [1] and 580 nM in experiment [2].

With `O=C(O)C(=O)Cc1ccc(O)cc1` [Inhibitor 4-HPP, 4-hydroxyphenylpyruvate], the Michaelis-Menten constant (Km) is 13 µM in experiment [3] (setting [8]), 160 µM in experiment [1] (setting [8]) and 89 µM in experiment [2] (setting [8]). Also, the results for the turnover number (kcat) in experiment [3] (setting [9]), in experiment [1] (setting [9]) and in experiment [2] (setting [9]) were 12.9 s⁻¹, 6 s⁻¹ and 17 s⁻¹, respectively.

As to `CSc1c(Cl)cc(F)c(C(=O)Nc2nnnn2C)c1Cl` [Inhibitor 7, 2,4-dichloro-6-fluoro-3-methylsulfanyl-N-(1-methyltetrazol-5-yl)benzamide], the Injury stood at 88% in experiment [4] (1.56 g ai/ha); 100% in experiment [4] (6.25 g ai/ha); 100% in experiment [4] (25 g ai/ha); 0% in experiment [5] (Event B, 1.56 g ai/ha); 5% in experiment [5] (Event B, 6.25 g ai/ha); 0% in experiment [5] (Event B, 25 g ai/ha). Further, the Injury in experiment [5] (Event C, 1.56 g ai/ha) turned out to be 0%; in experiment [5] (Event C, 6.25 g ai/ha), 0%; in experiment [5] (Event C, 25 g ai/ha), 0%; in experiment [6] (Event G, 1.56 g ai/ha), 0%; in experiment [6] (Event G, 6.25 g ai/ha), 28%; in experiment [6] (Event G, 25 g ai/ha), 40%. Also, the Injury in experiment [6] (Event H, 1.56 g ai/ha) is 5%; in experiment [6] (Event H, 6.25 g ai/ha) it was 53%; in experiment [6] (Event H, 25 g ai/ha) it was 93%; in experiment [7] (Event B, 1.56 g ai/ha), 0%; in experiment [7] (Event B, 6.25 g ai/ha), 18%; in experiment [7] (Event B, 25 g ai/ha) it was 78%. Besides, the Injury in experiment [7] (Event C, 1.56 g ai/ha) was found to be 0%; in experiment [7] (Event C, 6.25 g ai/ha), 8%; in experiment [7] (Event C, 25 g ai/ha) it was 73%. The average damage result in experiment [5] was “no damage”.

Regarding `CSc1c(C(F)(F)F)ccc(C(=O)Nc2nnnn2C)c1Cl` [Inhibitor 11, 2-chloro-3-methylsulfanyl-N-(1-methyltetrazol-5-yl)-4-(trifluoromethyl)benzamide], the Injury in experiment [4] (1.56 g ai/ha) came to 100%; in experiment [4] (6.25 g ai/ha), 100%; in experiment [4] (25 g ai/ha), 100%; in experiment [5] (Event B, 1.56 g ai/ha), 0%; in experiment [5] (Event B, 6.25 g ai/ha) it was 0%; in experiment [5] (Event B, 25 g ai/ha), 15%. Besides, the Injury in experiment [5] (Event C, 1.56 g ai/ha) is on record as 8%; in experiment [5] (Event C, 6.25 g ai/ha), 0%; in experiment [5] (Event C, 25 g ai/ha), 5%; in experiment [6] (Event G, 1.56 g ai/ha), 58%; in experiment [6] (Event G, 6.25 g ai/ha) it was 83%; in experiment [6] (Event G, 25 g ai/ha), 100%. In addition, the Injury in experiment [6] (Event H, 1.56 g ai/ha) was 43%; in experiment [6] (Event H, 6.25 g ai/ha), 100%; in experiment [6] (Event H, 25 g ai/ha), 100%; in experiment [7] (Event B, 1.56 g ai/ha), 40%; in experiment [7] (Event B, 6.25 g ai/ha), 99%; in experiment [7] (Event B, 25 g ai/ha), 100%. Also, the Injury in experiment [7] (Event C, 1.56 g ai/ha) came out at 15%; in experiment [7] (Event C, 6.25 g ai/ha) it was 79%; in experiment [7] (Event C, 25 g ai/ha) it was 100%. In experiment [5], this molecule gave an average damage of 10%.
